# Experimental data taken from the supplement of paper PMC10307832.
# Assays:
# Test in all cases: relative viability (nuclei count vs DMSO), 5 days (fraction); higher = more cells survive
# [1] = system: LU99A
# Method in brief: (§1)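 Dosing by pin tool came one day after lung cancer cell lines were seeded in 1536-well plates, using either one drug or a fixed anchor-drug dose plus five library-drug doses (not always all listed) in √10 steps. After 5 days, nuclei were counted on 4× images. Relative viability is treated-well nuclei count divided by vehicle-well nuclei count, and values are medians of duplicate plates.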
# [2] = system: COR-L 105
# Method in brief: as §1
# [3] = system: NCI-H358
# Method in brief: as §1
# [4] = system: NCI-H2085
# Method in brief: as §1
# [5] = system: HOP-62
# Method in brief: as §1
# [6] = system: SK-LU-1
# Method in brief: as §1
# [7] = system: UMC-11
# Method in brief: as §1
# [8] = system: SW 900
# Method in brief: as §1
# [9] = system: NCI-H2170
# Method in brief: as §1
# [10] = system: NCI-H1792
# Method in brief: as §1
# [11] = system: LCLC-97TM1
# Method in brief: as §1
# [12] = system: NCI-H1755
# Method in brief: as §1
# [13] = system: NCI-H460
# Method in brief: as §1
# [14] = system: NCI-H1915
# Method in brief: as §1
# [15] = system: EPLC-272H
# Method in brief: as §1
# [16] = system: NCI-H1944
# Method in brief: as §1
# [17] = system: NCI-H1975
# Method in brief: as §1
# [18] = system: A-427
# Method in brief: as §1
# [19] = system: LC-2-ad
# Method in brief: as §1
# [20] = system: LXF-289
# Method in brief: as §1
# [21] = system: NCI-H1793
# Method in brief: as §1
structure (smiles),measurement,setting,value
C=C1C(=O)O[C@@H](CCCCCCCC)[C@@H]1C(=O)O [C-75] + CCNC(=O)c1noc(-c2cc(C(C)C)c(O)cc2O)c1-c1ccc(CN2CCOCC2)cc1 [Luminespib] (partner 0.01 µM),relative viability,[1]; first compound 0.08 µM,0.209
same,relative viability,[1]; first compound 0.253 µM,0.297
same,relative viability,[1]; first compound 0.8 µM,0.251
same,relative viability,[1]; first compound 2.53 µM,0.252
same,relative viability,[1]; first compound 8 µM,0.286
same,relative viability,[2]; first compound 0.08 µM,0.688
same,relative viability,[2]; first compound 0.253 µM,0.584
same,relative viability,[2]; first compound 0.8 µM,0.817
same,relative viability,[2]; first compound 2.53 µM,0.815
same,relative viability,[2]; first compound 8 µM,0.638
same,relative viability,[3]; first compound 0.08 µM,0.338
same,relative viability,[3]; first compound 0.253 µM,0.247
same,relative viability,[3]; first compound 0.8 µM,0.314
same,relative viability,[3]; first compound 2.53 µM,0.355
same,relative viability,[3]; first compound 8 µM,0.224
same,relative viability,[4]; first compound 0.08 µM,0.427
same,relative viability,[4]; first compound 0.253 µM,0.416
same,relative viability,[4]; first compound 0.8 µM,0.38
same,relative viability,[4]; first compound 2.53 µM,0.366
same,relative viability,[4]; first compound 8 µM,0.417
same,relative viability,[5]; first compound 0.08 µM,0.858
same,relative viability,[5]; first compound 0.253 µM,0.945
same,relative viability,[5]; first compound 0.8 µM,0.902
same,relative viability,[5]; first compound 2.53 µM,0.909
same,relative viability,[5]; first compound 8 µM,0.801
same,relative viability,[6]; first compound 0.08 µM,0.202
same,relative viability,[6]; first compound 0.253 µM,0.191
same,relative viability,[6]; first compound 0.8 µM,0.184
same,relative viability,[6]; first compound 2.53 µM,0.193
same,relative viability,[6]; first compound 8 µM,0.161
same,relative viability,[7]; first compound 0.08 µM,0.992
same,relative viability,[7]; first compound 0.253 µM,1.01
same,relative viability,[7]; first compound 0.8 µM,1.03
same,relative viability,[7]; first compound 2.53 µM,0.712
same,relative viability,[7]; first compound 8 µM,0.742
same,relative viability,[8]; first compound 0.08 µM,0.169
same,relative viability,[8]; first compound 0.253 µM,0.191
same,relative viability,[8]; first compound 0.8 µM,0.163
same,relative viability,[8]; first compound 2.53 µM,0.175
same,relative viability,[8]; first compound 8 µM,0.206
same,relative viability,[9]; first compound 0.08 µM,0.551
same,relative viability,[9]; first compound 0.253 µM,0.599
same,relative viability,[9]; first compound 0.8 µM,0.785
same,relative viability,[9]; first compound 2.53 µM,0.407
same,relative viability,[9]; first compound 8 µM,0.669
same,relative viability,[10]; first compound 0.08 µM,0.423
same,relative viability,[10]; first compound 0.253 µM,0.484
same,relative viability,[10]; first compound 0.8 µM,0.514
same,relative viability,[10]; first compound 2.53 µM,0.331
same,relative viability,[10]; first compound 8 µM,0.522
same,relative viability,[11]; first compound 0.08 µM,0.731
same,relative viability,[11]; first compound 0.253 µM,0.808
same,relative viability,[11]; first compound 0.8 µM,0.852
same,relative viability,[11]; first compound 2.53 µM,0.452
same,relative viability,[11]; first compound 8 µM,0.801
same,relative viability,[12]; first compound 0.08 µM,0.384
same,relative viability,[12]; first compound 0.253 µM,0.489
same,relative viability,[12]; first compound 0.8 µM,0.465
same,relative viability,[12]; first compound 2.53 µM,0.467
same,relative viability,[12]; first compound 8 µM,0.416
same,relative viability,[13]; first compound 0.08 µM,0.0308
same,relative viability,[13]; first compound 0.253 µM,0.0239
same,relative viability,[13]; first compound 0.8 µM,0.0329
same,relative viability,[13]; first compound 8 µM,0.0319
same,relative viability,[14]; first compound 0.08 µM,0.694
same,relative viability,[14]; first compound 0.253 µM,0.768
same,relative viability,[14]; first compound 0.8 µM,0.798
same,relative viability,[14]; first compound 2.53 µM,0.717
same,relative viability,[14]; first compound 8 µM,0.677
same,relative viability,[15]; first compound 0.08 µM,0.302
same,relative viability,[15]; first compound 0.253 µM,0.308
same,relative viability,[15]; first compound 0.8 µM,0.297
same,relative viability,[15]; first compound 2.53 µM,0.202
same,relative viability,[15]; first compound 8 µM,0.159
same,relative viability,[16]; first compound 0.08 µM,0.777
same,relative viability,[16]; first compound 0.253 µM,0.642
same,relative viability,[16]; first compound 0.8 µM,0.684
same,relative viability,[16]; first compound 8 µM,0.761
same,relative viability,[17]; first compound 0.08 µM,0.161
same,relative viability,[17]; first compound 0.253 µM,0.195
same,relative viability,[17]; first compound 0.8 µM,0.122
same,relative viability,[17]; first compound 2.53 µM,0.13
same,relative viability,[17]; first compound 8 µM,0.252
same,relative viability,[18]; first compound 0.08 µM,0.931
same,relative viability,[18]; first compound 0.253 µM,0.788
same,relative viability,[18]; first compound 0.8 µM,0.922
same,relative viability,[18]; first compound 2.53 µM,0.842
same,relative viability,[18]; first compound 8 µM,0.703
same,relative viability,[19]; first compound 0.08 µM,1.06
same,relative viability,[19]; first compound 0.253 µM,0.801
same,relative viability,[19]; first compound 0.8 µM,0.95
same,relative viability,[19]; first compound 2.53 µM,0.797
same,relative viability,[19]; first compound 8 µM,0.91
same,relative viability,[20]; first compound 0.08 µM,0.599
same,relative viability,[20]; first compound 0.253 µM,0.66
same,relative viability,[20]; first compound 0.8 µM,0.671
same,relative viability,[20]; first compound 2.53 µM,0.641
same,relative viability,[20]; first compound 8 µM,0.702
same,relative viability,[21]; first compound 0.08 µM,0.18
same,relative viability,[21]; first compound 0.253 µM,0.148
same,relative viability,[21]; first compound 0.8 µM,0.141
same,relative viability,[21]; first compound 2.53 µM,0.264
same,relative viability,[21]; first compound 8 µM,0.224
O=C(O)c1ccc(-c2c[nH]c3ncc(-c4ccccc4)cc23)cc1C1CCCC1 + CCNC(=O)c1noc(-c2cc(C(C)C)c(O)cc2O)c1-c1ccc(CN2CCOCC2)cc1 [Luminespib] (partner 0.01 µM),relative viability,[1]; first compound 0.04 µM,0.259
same,relative viability,[1]; first compound 0.1265 µM,0.254
same,relative viability,[1]; first compound 0.4 µM,0.244
same,relative viability,[1]; first compound 1.265 µM,0.273
same,relative viability,[2]; first compound 0.04 µM,0.933
same,relative viability,[2]; first compound 0.1265 µM,0.76
same,relative viability,[2]; first compound 0.4 µM,0.762
same,relative viability,[2]; first compound 1.265 µM,0.773
same,relative viability,[3]; first compound 0.04 µM,0.45
same,relative viability,[3]; first compound 0.1265 µM,0.192
same,relative viability,[3]; first compound 0.4 µM,0.249
same,relative viability,[3]; first compound 1.265 µM,0.165
same,relative viability,[4]; first compound 0.04 µM,0.441
same,relative viability,[4]; first compound 0.1265 µM,0.422
same,relative viability,[4]; first compound 0.4 µM,0.488
same,relative viability,[4]; first compound 1.265 µM,0.31
same,relative viability,[5]; first compound 0.04 µM,0.989
same,relative viability,[5]; first compound 0.1265 µM,0.997
same,relative viability,[5]; first compound 0.4 µM,0.86
same,relative viability,[5]; first compound 1.265 µM,0.737
same,relative viability,[6]; first compound 0.04 µM,0.204
same,relative viability,[6]; first compound 0.1265 µM,0.196
same,relative viability,[6]; first compound 0.4 µM,0.231
same,relative viability,[6]; first compound 1.265 µM,0.179
same,relative viability,[7]; first compound 0.04 µM,0.919
same,relative viability,[7]; first compound 0.1265 µM,1.05
same,relative viability,[7]; first compound 0.4 µM,0.974
same,relative viability,[7]; first compound 1.265 µM,0.738
same,relative viability,[8]; first compound 0.04 µM,0.185
same,relative viability,[8]; first compound 0.1265 µM,0.171
same,relative viability,[8]; first compound 0.4 µM,0.175
same,relative viability,[8]; first compound 1.265 µM,0.156
same,relative viability,[9]; first compound 0.04 µM,0.745
same,relative viability,[9]; first compound 0.1265 µM,0.804
same,relative viability,[9]; first compound 0.4 µM,0.794
same,relative viability,[9]; first compound 1.265 µM,0.491
same,relative viability,[10]; first compound 0.1265 µM,0.477
same,relative viability,[10]; first compound 0.4 µM,0.351
same,relative viability,[10]; first compound 1.265 µM,0.519
same,relative viability,[11]; first compound 0.04 µM,0.858
same,relative viability,[11]; first compound 0.1265 µM,0.82
same,relative viability,[11]; first compound 0.4 µM,0.633
same,relative viability,[11]; first compound 1.265 µM,0.5
same,relative viability,[12]; first compound 0.04 µM,0.375
same,relative viability,[12]; first compound 0.1265 µM,0.644
same,relative viability,[12]; first compound 0.4 µM,0.695
same,relative viability,[12]; first compound 1.265 µM,0.574
same,relative viability,[13]; first compound 0.04 µM,0.0285
same,relative viability,[13]; first compound 0.1265 µM,0.0329
same,relative viability,[13]; first compound 0.4 µM,0.0398
same,relative viability,[13]; first compound 1.265 µM,0.0257
same,relative viability,[14]; first compound 0.04 µM,0.784
same,relative viability,[14]; first compound 0.1265 µM,0.714
same,relative viability,[14]; first compound 0.4 µM,0.643
same,relative viability,[14]; first compound 1.265 µM,0.506
same,relative viability,[15]; first compound 0.04 µM,0.628
same,relative viability,[15]; first compound 0.1265 µM,0.367
same,relative viability,[15]; first compound 0.4 µM,0.21
same,relative viability,[15]; first compound 1.265 µM,0.0951
same,relative viability,[16]; first compound 0.04 µM,0.687
same,relative viability,[16]; first compound 0.1265 µM,0.836
same,relative viability,[16]; first compound 0.4 µM,0.716
same,relative viability,[16]; first compound 1.265 µM,0.702
same,relative viability,[17]; first compound 0.04 µM,0.131
same,relative viability,[17]; first compound 0.1265 µM,0.302
same,relative viability,[17]; first compound 0.4 µM,0.199
same,relative viability,[17]; first compound 1.265 µM,0.338
same,relative viability,[18]; first compound 0.04 µM,0.956
same,relative viability,[18]; first compound 0.1265 µM,1.01
same,relative viability,[18]; first compound 0.4 µM,0.647
same,relative viability,[18]; first compound 1.265 µM,0.577
same,relative viability,[19]; first compound 0.04 µM,0.874
same,relative viability,[19]; first compound 0.1265 µM,1.08
same,relative viability,[19]; first compound 0.4 µM,0.822
same,relative viability,[19]; first compound 1.265 µM,0.566
same,relative viability,[20]; first compound 0.04 µM,0.749
same,relative viability,[20]; first compound 0.1265 µM,0.614
same,relative viability,[20]; first compound 0.4 µM,0.484
same,relative viability,[20]; first compound 1.265 µM,0.171
same,relative viability,[21]; first compound 0.04 µM,0.19
same,relative viability,[21]; first compound 0.1265 µM,0.166
same,relative viability,[21]; first compound 0.4 µM,0.151
same,relative viability,[21]; first compound 1.265 µM,0.148
